Broadly, the IC50 is the concentration needed to halve the response being measured.

SMILES strings stand for the structures.

The target of this assay is T1, HCV RdRp NS5B d21BK (BK strain, 1b subtype) (Hepatitis C virus genotype 1b, UniProt P26663).
T1 construct: NS5B from the BK strain (1b subtype) is expressed in E. coli as a protein in which the 21 C-terminal amino acids are replaced; made in house; host or cells: E. coli
T1 sequence (P26663 2420-2997, looked up, natural form): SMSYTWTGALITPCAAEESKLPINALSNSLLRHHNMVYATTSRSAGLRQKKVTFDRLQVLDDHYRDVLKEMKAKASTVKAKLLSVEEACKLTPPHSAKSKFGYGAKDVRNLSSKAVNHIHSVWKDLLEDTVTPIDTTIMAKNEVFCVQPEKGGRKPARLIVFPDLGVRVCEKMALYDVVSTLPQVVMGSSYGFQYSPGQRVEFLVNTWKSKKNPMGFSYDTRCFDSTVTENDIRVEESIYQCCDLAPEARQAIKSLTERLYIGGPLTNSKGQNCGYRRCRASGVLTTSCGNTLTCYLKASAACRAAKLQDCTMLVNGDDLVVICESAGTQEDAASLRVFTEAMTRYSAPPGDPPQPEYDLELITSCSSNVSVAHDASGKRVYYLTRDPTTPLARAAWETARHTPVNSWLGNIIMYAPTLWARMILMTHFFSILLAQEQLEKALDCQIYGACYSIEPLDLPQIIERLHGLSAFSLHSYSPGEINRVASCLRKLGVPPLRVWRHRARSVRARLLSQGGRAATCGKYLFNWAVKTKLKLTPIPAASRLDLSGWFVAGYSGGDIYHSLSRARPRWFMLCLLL
Put plainly: HCV polymerase (NS5B) RNA-dependent RNA polymerase inhibition, 33P-GTP filter assay. Format: biochemical. Conditions: in vitro; NS5B BK strain (1b subtype), 24 nM enzyme, 2 h at room temperature; read-out: HCV Polymerase Median IC50. The source says:
The ability of the compounds of the present invention to inhibit hepatitis C polymerase was established by the following experimental procedure:
NS5B from the BK strain (1b subtype) is expressed in E. coli as a protein in which the 21 C-terminal amino acids are replaced with a short linker and a hexahistidine tag (GSHHHHHH). The purified protein is mixed with radioactive nucleotides and allowed to replicate a heteropolymeric RNA substrate, primed by an endogenous short hairpin, resulting in an approximately 760 nt product. The radioactive product is captured on a filter and quantitated after removal of the unincorporated nucleotides.
(1) Compounds 10 μl at 10 μg/ml in 15% DMSO
Add 20 μl enzyme mix into each well of the assay plate. Incubate compound and enzyme at room temperature for 15 minutes.
(3) Template Mix—Prepare Ahead.
Spin down a tube of RNA (5 μg/tube stored in 75% ethanol and 0.3 M sodium acetate) in a microcentrifuge for 20 min. at 4° C. One tube is enough for 1 to 1½ plates. Remove as much ethanol from the tube as possible by inverting the tube. Be gentle, pellet RNA may not adhere to the tube. Vacuum dry the RNA. Resuspend the RNA by adding 1 ml of DEPC water, close the cap of the tube tightly. To dissolve RNA, incubate RNA solution on ice for ˜60 min. and gently vortex. Spin briefly to ensure all RNA solution is down to the bottom of the tube before opening cap. Gently transfer RNA solution into a 5 ml or larger tube. Add another 3 ml of DEPC water (total 4 ml of volume).
Add the following volumes of reagents.
Add 20 μl template mix per reaction (i.e. 20 ng of POF per reaction or ˜3 nM)
(4) Incubate reaction at room temperature (22-25° C.) for 2 hours.
(5) Stop reaction by adding 50 μl of 170 mM EDTA.
Final concentration of EDTA is 85 mM.
(6) Prewet filters of Millipore Multiscreen filter plate by adding 200 μl of 0.5 M sodium phosphate buffer, pH 7.0 into each well. Let stand at room temperature for 2-3 min.
(7) Place the Multiscreen filter plate onto a Millipore Manifold and turn on vacuum to allow buffer to flow through. Turn off vacuum. Transfer 80 μl of the reaction product into each well of the filter plate. Let stand for 2-3 min. Turn on vacuum to filter reaction product.
(8) Turn off vacuum. Add 200 μl of 0.5 M sodium phosphate buffer, pH 7.0 into each well to wash filter. Turn on vacuum.
Repeat step (8) three more times.
(9) Remove polypropylene bottom. Spot dry filter at the bottom with paper towel. Air dry filter plate on a bench for 1 hr. Add 40 μl Super Mix scintillant. Seal top of the plate with a tape. Place plate into a Packard carrier or MicroBeta carrier.
(10) Count plate using a Packard Topcount or MicroBeta counter. Program 10 for ^33P in Top count or ^33P program in micro-beta.
Percent inhibition is calculated after background subtraction as a percent reduction of activity relative to the positive control (average value of the plate excluding the negative controls).
In the case of `O=S(=O)(c1cc(Cl)cc(Cl)c1O)N1CCC[C@H]1c1nn[nH]n1` [Example 1, 2,4-dichloro-6-{[(2S)-2-(2H-tetrazol-5-yl)pyrrolidin-1-yl]sulfonyl}phenol], the half-inhibitory concentration (IC50) was found to be 560 nM.
For `N#C[C@@H]1CCCN1S(=O)(=O)c1cc(Cl)cc(Cl)c1O` [Example 2, (2S)-1-[(3,5-dichloro-2-hydroxyphenyl)sulfonyl]pyrrolidine-2-carbonitrile] the value was 1040 nM; for `O=C(O)[C@@H]1C[C@@H](O)CN1S(=O)(=O)c1cc(Cl)c(Cl)c(Cl)c1O` [Example 3, (4R)-4-hydroxy-1-[(3,4,5-trichloro-2-hydroxyphenyl)sulfonyl]-L-proline], 70 nM; for `O=C(O)[C@@H]1CCCN1S(=O)(=O)c1cc(Cl)c(Cl)c(Cl)c1O` [Example 4, 1-[(3,4,5-trichloro-2-hydroxyphenyl)sulfonyl]-L-proline], 80 nM.
For `O=C(O)[C@@H]1CCCN1S(=O)(=O)c1cc(Cl)cc(Br)c1O` [Example 5, 1-[(3-bromo-5-chloro-2-hydroxyphenyl)sulfonyl]-L-proline] the value was 260 nM.
With `O=C(O)[C@@H]1C[C@@H](O)CN1S(=O)(=O)c1cc(Br)cc(Br)c1O` [Example 6, (4R)-1-[(3,5-dibromo-2-hydroxyphenyl)sulfonyl]-4-hydroxy-L-proline], the IC50 was 460 nM.
For `O=C(O)[C@@H]1C[C@@H](O)CN1S(=O)(=O)c1cc(Cl)cc(Br)c1O` [Example 7, (4R)-1-[(3-bromo-5-chloro-2-hydroxyphenyl)sulfonyl]-4-hydroxy-L-proline] the value was 470 nM; for `O=C(O)[C@@H]1CCCN1S(=O)(=O)c1cc(Br)cc(Cl)c1O` [Example 8, 1-[(5-bromo-3-chloro-2-hydroxyphenyl)sulfonyl]-L-proline], 400 nM.
For `O=C(O)[C@@H]1CCCN1S(=O)(=O)c1cc(Br)cc(Br)c1O` [Example 9, 1-[(3,5-dibromo-2-hydroxyphenyl)sulfonyl]-L-proline], the concentration for half-maximal inhibition (IC50) came to 560 nM.
As for `O=C(O)[C@@H]1C[C@@H](O)CN1S(=O)(=O)c1cc(Cl)cc(Cl)c1O` [Example 10, (4R)-1-[(3,5-dichloro-2-hydroxyphenyl)sulfonyl]-4-hydroxy-L-proline], the half-maximal inhibitory concentration (IC50) was 670 nM.
On to `CO[C@@H]1C[C@@H](C(=O)O)N(S(=O)(=O)c2cc(Cl)cc(Cl)c2O)C1` [Example 12, (4R)-1-[(3,5-dichloro-2-hydroxyphenyl)sulfonyl]-4-methoxy-L-proline], for which the IC50 turned out to be 910 nM.
Turning to `O=C(O)[C@H]1CCCN1S(=O)(=O)c1cc(Cl)c(Cl)c(Cl)c1O` [Example 13, 1-[(3,4,5-trichloro-2-hydroxyphenyl)sulfonyl]-D-proline], the IC50 was 1170 nM.
For `O=C(O)[C@@H]1CCCN1S(=O)(=O)c1cc(F)cc(Cl)c1O` [Example 14, 1-[(3-chloro-5-fluoro-2-hydroxyphenyl)sulfonyl]-L-proline], the IC50 came out at 2050 nM.
As to `O=C(O)[C@H]1C[C@H](O)CN1S(=O)(=O)c1cc(Cl)c(Cl)c(Cl)c1O` [Example 15, (4S)-4-hydroxy-1-[(3,4,5-trichloro-2-hydroxyphenyl)sulfonyl]-D-proline], the half-inhibitory concentration (IC50) was determined as 1220 nM.
Regarding `CC(=O)[C@@H]1CCCN1S(=O)(=O)c1cc(Cl)cc(Cl)c1O` [Example 16, 1-{(2S)-1-[(3,5-dichloro-2-hydroxyphenyl)sulfonyl]pyrrolidin-2-yl}ethanone], the concentration for half-maximal inhibition (IC50) is 2620 nM.
On to `Cc1cc(N)c(S(=O)(=O)N2CCC[C@@H]2C(=O)O)cc1Cl` [Example 17, 1-[(2-amino-5-chloro-4-methylphenyl)sulfonyl]-D-proline], for which the half-maximal inhibitory concentration (IC50) was determined as 4700 nM.
With `O=C(O)[C@@H]1C[C@@H](O)CN1S(=O)(=O)c1cc(F)cc(Cl)c1O` [Example 18, (4R)-1-[(3-chloro-5-fluoro-2-hydroxyphenyl)sulfonyl]-4-hydroxy-L-proline] the figure was 3280 nM; with `Cc1cc(N)c(S(=O)(=O)N2C[C@@H](O)C[C@@H]2C(=O)O)cc1Cl` [Example 19, (4S)-1-[(2-amino-5-chloro-4-methylphenyl)sulfonyl]-4-hydroxy-D-proline], 4050 nM.

The values are drawn from patent publication US20070225344A1, “Sulfonamide derivatives to treat infection with hepatitis C virus” (priority 2006, published 2007).
